Laboratory results published in PMC9719519, “Non-classical ferroptosis inhibition by a small molecule targeting PHB2” (Nature Communications, 2022).

Assays:
Assay in all cases: biochemical
Design in all cases: Eurofins recombinant human kinase profiling, remaining kinase activity as % of control, 10 uM ATP
Settings in all cases: ATP 10 uM; read-out: %Ctrl@10 μM
ATR/ATRIP(h) = ATR/ATRIP(h) (Homo sapiens, UniProt Q13535)
In short: (§1)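 Recombinant human kinases, 401 in total, screened using an outsourced kinase profiling assay.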

BMPR2(h) = BMPR2(h) (Homo sapiens, UniProt Q13873)
In short: as §1

CK1δ(h) = target: T1, CK1δ(h) (Homo sapiens, UniProt P48730)
T1 construct: gene CSNK1D
In short: as §1

EphA5(h) = EphA5(h) (Homo sapiens, UniProt P54756)
EphA5(h), sequence (P54756 whole entry): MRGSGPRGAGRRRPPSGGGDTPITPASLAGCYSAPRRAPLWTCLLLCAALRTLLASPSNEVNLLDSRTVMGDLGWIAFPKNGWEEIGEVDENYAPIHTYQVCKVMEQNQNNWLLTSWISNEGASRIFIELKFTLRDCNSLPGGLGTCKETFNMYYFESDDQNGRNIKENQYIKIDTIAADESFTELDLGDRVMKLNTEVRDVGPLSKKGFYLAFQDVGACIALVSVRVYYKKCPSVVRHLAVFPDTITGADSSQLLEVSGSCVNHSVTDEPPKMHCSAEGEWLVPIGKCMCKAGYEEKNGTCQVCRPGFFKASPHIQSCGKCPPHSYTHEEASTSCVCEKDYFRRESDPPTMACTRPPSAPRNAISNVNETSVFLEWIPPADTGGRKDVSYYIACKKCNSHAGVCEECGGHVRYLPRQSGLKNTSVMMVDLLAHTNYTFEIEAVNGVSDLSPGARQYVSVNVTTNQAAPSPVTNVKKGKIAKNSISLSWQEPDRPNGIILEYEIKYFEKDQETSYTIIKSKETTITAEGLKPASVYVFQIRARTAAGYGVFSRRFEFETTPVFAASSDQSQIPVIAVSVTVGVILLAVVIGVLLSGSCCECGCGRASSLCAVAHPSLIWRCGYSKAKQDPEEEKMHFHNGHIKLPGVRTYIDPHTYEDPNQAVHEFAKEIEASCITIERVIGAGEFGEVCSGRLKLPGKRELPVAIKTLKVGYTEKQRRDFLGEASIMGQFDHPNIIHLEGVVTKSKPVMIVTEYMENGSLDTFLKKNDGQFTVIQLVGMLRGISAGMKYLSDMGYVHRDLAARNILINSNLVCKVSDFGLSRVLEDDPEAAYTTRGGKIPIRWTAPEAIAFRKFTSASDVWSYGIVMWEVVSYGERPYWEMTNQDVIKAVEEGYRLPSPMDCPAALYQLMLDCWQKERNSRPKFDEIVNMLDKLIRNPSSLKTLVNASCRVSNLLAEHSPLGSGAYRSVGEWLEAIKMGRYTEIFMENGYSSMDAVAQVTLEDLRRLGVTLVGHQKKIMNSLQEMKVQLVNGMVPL
In short: as §1

GRK3(h) = GRK3(h) (Homo sapiens, UniProt P35626)
In short: as §1

GRK5(h) = GRK5(h) (Homo sapiens, UniProt P34947)
In short: as §1

JAK1(h) = JAK1(h) (Homo sapiens, UniProt P23458)
In short: as §1

JAK2(h) = JAK2(h) (Homo sapiens, UniProt O60674)
In short: as §1

MARK1(h) = MARK1(h) (Homo sapiens, UniProt Q9P0L2)
In short: as §1

MEK1(h) = target: T2, MEK1(h) (Homo sapiens, UniProt Q02750)
T2 construct: gene MAP2K1
In short: as §1

MEK2(h) = target: T3, MEK2(h) (Homo sapiens, UniProt P36507)
T3 construct: gene MAP2K2
In short: as §1

MRCKα(h) = target: T4, MRCKα(h) (Homo sapiens, UniProt Q5VT25)
T4 construct: gene CDC42BPA
In short: as §1

PAR-1Bα(h) = target: T5, PAR-1Bα(h) (Homo sapiens, UniProt Q7KZI7)
T5 construct: gene MARK2
T5 sequence (Q7KZI7 whole entry): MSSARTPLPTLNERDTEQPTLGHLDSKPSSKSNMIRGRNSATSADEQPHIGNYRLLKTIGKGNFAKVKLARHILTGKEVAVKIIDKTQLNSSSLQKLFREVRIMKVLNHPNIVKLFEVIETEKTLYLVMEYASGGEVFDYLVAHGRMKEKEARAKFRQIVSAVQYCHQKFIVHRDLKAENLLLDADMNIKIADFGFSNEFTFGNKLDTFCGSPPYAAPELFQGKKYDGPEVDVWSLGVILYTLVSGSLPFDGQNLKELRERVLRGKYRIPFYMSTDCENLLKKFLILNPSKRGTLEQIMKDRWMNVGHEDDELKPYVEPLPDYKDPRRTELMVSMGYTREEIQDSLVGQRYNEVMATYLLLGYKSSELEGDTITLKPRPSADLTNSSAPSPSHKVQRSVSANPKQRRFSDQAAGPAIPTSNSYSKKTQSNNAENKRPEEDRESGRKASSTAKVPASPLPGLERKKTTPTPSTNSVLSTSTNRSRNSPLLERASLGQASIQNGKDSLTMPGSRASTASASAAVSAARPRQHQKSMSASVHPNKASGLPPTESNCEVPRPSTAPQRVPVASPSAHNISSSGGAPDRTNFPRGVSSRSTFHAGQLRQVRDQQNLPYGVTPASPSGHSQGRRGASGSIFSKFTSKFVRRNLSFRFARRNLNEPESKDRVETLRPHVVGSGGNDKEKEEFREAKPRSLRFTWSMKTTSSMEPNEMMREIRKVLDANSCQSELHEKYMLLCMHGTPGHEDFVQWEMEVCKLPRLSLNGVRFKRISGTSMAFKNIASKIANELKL
In short: as §1

PEK(h) = target: T6, PEK(h) (Homo sapiens, UniProt Q9NZJ5)
T6 construct: gene EIF2AK3
In short: as §1

[1] = target: T7, PI3 Kinase (p110(H1047R)/p85)(h) (Homo sapiens, UniProt P42336, H1047R)
T7 construct: gene PIK3CA
T7 sequence (P42336 whole entry H1047R): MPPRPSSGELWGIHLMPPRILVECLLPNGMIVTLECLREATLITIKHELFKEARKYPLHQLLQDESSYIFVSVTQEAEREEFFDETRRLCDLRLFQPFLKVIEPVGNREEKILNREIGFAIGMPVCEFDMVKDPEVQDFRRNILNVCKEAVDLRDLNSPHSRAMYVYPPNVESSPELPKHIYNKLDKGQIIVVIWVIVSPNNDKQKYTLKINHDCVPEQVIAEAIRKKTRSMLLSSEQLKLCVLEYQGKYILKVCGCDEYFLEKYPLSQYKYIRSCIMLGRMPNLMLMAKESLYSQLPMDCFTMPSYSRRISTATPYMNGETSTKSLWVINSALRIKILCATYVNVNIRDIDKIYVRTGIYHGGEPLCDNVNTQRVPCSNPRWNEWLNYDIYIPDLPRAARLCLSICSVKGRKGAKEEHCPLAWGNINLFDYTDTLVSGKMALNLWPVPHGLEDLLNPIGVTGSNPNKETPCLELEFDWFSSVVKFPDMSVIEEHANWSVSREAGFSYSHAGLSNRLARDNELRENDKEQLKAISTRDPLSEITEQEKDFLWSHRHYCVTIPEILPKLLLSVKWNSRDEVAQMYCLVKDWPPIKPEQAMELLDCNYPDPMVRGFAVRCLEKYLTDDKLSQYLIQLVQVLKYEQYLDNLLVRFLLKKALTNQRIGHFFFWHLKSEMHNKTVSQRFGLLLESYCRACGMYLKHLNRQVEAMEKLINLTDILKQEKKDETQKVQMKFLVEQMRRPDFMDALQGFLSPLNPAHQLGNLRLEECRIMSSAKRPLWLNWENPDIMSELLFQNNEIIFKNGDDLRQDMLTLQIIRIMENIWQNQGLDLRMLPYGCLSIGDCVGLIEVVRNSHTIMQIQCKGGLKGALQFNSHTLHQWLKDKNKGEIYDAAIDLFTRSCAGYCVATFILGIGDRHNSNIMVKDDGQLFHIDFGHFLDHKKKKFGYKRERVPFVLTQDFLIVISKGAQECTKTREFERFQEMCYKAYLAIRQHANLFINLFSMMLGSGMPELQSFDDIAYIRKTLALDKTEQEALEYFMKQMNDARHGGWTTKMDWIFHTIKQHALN
T7 sequence (P27986 whole entry partner): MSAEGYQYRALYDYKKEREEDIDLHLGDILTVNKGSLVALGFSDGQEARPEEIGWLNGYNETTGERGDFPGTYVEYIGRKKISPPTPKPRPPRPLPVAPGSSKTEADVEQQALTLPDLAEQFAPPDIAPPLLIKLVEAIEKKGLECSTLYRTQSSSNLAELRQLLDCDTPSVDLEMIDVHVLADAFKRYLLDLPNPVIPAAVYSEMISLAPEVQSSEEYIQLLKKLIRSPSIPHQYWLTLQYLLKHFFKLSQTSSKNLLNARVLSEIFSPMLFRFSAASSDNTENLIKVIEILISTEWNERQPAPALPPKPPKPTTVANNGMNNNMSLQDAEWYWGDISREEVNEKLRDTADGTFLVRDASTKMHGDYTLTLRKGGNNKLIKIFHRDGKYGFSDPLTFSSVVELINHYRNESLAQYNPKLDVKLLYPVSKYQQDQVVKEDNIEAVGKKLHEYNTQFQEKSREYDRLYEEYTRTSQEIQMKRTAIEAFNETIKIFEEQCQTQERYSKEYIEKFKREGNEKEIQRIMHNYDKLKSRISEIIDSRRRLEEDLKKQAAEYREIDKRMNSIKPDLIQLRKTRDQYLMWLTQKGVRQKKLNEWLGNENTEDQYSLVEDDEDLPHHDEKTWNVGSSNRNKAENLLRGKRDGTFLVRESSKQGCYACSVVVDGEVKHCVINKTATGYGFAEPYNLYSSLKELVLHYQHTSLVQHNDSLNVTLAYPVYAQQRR
In short: as §1

PI3 Kinase (p120)(h) = target: T8, PI3 Kinase (p120)(h) (Homo sapiens, UniProt P48736)
T8 construct: gene PIK3CG
In short: as §1

PKCθ(h) = target: T9, PKCθ(h) (Homo sapiens, UniProt Q04759)
T9 construct: gene PRKCQ
In short: as §1

PKD2(h) = target: T10, PKD2(h) (Homo sapiens, UniProt Q9BZL6)
T10 construct: gene PRKD2
T10 sequence (Q9BZL6 whole entry): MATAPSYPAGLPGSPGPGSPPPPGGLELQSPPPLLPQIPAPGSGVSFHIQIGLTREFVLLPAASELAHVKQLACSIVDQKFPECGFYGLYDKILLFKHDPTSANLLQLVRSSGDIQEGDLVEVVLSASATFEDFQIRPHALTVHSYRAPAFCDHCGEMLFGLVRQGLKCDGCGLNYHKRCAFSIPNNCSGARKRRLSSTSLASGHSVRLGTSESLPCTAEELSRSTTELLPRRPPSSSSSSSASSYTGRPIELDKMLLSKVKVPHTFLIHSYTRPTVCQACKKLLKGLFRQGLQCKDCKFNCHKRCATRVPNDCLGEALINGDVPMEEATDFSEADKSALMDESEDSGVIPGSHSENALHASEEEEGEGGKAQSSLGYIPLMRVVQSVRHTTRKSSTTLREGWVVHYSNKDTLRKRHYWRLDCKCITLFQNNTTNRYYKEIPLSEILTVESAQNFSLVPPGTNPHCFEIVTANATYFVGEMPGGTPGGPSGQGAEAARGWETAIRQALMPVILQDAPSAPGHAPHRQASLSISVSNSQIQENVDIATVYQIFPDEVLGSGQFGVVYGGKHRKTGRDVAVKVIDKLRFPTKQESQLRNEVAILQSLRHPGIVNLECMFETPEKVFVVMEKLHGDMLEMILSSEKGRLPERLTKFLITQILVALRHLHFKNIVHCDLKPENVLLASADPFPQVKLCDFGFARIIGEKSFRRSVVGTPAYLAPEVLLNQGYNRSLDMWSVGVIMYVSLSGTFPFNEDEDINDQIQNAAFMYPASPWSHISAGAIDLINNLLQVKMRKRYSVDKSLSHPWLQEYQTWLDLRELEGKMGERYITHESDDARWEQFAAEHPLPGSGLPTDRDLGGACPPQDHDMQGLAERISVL
In short: as §1

SGK2(h) = SGK2(h) (Homo sapiens, UniProt Q9HBY8)
In short: as §1

TAK1(h) = target: T11, TAK1(h) (Homo sapiens, UniProt O43318)
T11 construct: gene MAP3K7
In short: as §1

TGFBR1(h) = TGFBR1(h) (Homo sapiens, UniProt P36897)
TGFBR1(h), sequence (P36897 whole entry): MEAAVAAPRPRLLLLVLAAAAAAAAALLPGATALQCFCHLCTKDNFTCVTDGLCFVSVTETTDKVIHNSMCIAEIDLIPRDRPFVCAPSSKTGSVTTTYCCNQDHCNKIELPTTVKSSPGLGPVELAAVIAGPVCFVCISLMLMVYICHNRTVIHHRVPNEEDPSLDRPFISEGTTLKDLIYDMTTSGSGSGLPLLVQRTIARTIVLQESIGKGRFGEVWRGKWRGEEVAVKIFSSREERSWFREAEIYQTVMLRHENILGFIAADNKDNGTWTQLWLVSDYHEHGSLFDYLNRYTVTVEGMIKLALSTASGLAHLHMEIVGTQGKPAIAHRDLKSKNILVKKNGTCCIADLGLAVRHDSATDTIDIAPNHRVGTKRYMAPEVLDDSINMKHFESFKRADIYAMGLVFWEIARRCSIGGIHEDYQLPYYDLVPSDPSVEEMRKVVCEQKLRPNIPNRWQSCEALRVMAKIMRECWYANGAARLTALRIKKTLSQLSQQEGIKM
In short: as §1

c-RAF(h) = target: T12, c-RAF(h) (Homo sapiens, UniProt P04049)
T12 construct: gene RAF1
In short: as §1

For `C1=C(c2nc(-c3cnn(C4CCNCC4)c3)cn3cc(-c4ccccc4)nc23)CCOC1` [YL-939], the remaining activity at 10 µM (ATR/ATRIP(h)) was 88%, the remaining activity at 10 µM (BMPR2(h)) was 99% and the remaining activity at 10 µM (CK1δ(h)) was 111%. It also gave a remaining activity at 10 µM (EphA5(h)) of 96%, a remaining activity at 10 µM (GRK3(h)) of 92% and a remaining activity at 10 µM (GRK5(h)) of 72%. For the same compound, the remaining activity at 10 µM (JAK1(h)) was 66%, the remaining activity at 10 µM (JAK2(h)) was 90% and the remaining activity at 10 µM (MARK1(h)) was 95%. For the same compound, the remaining activity at 10 µM (MEK1(h)) was 109%, the remaining activity at 10 µM (MEK2(h)) was 89% and the remaining activity at 10 µM (MRCKα(h)) was 92%. For the same compound, the remaining activity at 10 µM (PAR-1Bα(h)) was 101%, the remaining activity at 10 µM (PEK(h)) was 99% and the remaining activity at 10 µM [1] was 99%. For the same compound, the remaining activity at 10 µM (PI3 Kinase (p120)(h)) was 104%, the remaining activity at 10 µM (PKCθ(h)) was 93% and the remaining activity at 10 µM (PKD2(h)) was 89%. For the same compound, the remaining activity at 10 µM (SGK2(h)) was 96%, the remaining activity at 10 µM (TAK1(h)) was 77% and the remaining activity at 10 µM (TGFBR1(h)) was 101%. The remaining activity at 10 µM (c-RAF(h)) was 76%.
